From patent publication US12055536B2, “Device for detection of cellular stress” (Trustees of Boston University, priority 2021, dated 2024)

How the values were obtained:
SKOV3-cisR cells [1] = experiment: Isotope labeling and SRS imaging; format: cell-based, human; conditions: BMS 5 μM, 10 μM or 20 μM for 24 hours, 100 μM PA-d31 for 6 hours
Protocol: (§1) For labeling with glucose-d7, media was replaced with glucose-free DMEM medium (Thermo Fisher Scientific, #11966025)+10% FBS+P/S supplemented with 25 mM glucose-d7 after seeding the cells in 35 mm glass-bottom dishes overnight. For labeling with FA or analogs, including PA-d31, OA-d34, and ODYA, FA or analogs were added to the culture media at final concentration of 100 μM and cells were treated for 6 h. For quantitative SRS imaging, cells on glass-bottom dishes were fixed with 10% neutral buffered formalin for 30 min and washed with PBS for 3 times. Hyperspectral SRS imaging was performed to the cells at Raman spectral region from 2100 to 2300 cm^−1.
(§2) To identify the source of increased lipid content in cisplatin-resistant ovarian cancer cells, the contribution of de novo lipogenesis and of fatty acid uptake were examined, respectively. Using a stable isotope probing method, the level of lipogenesis was examined by feeding the cells with deuterium labeled glucose-d7. […] Quantitative analysis confirmed significant reduction of both signal intensity and relative area fraction in PEO4 cells when compared to PEO1 cells (FIG. 2B), indicating a decrease in glucose derived anabolism and de novo lipogenesis in cisplatin-resistant cells. […]

OVCAR5-cisR cells [2] = experiment: Isotope labeling and SRS imaging; format: cell-based, human; conditions: BMS 10 μM for 24 hours, 100 μM PA-d31 for 6 hours
Protocol: as §1, §2

SKOV3-cisR cells [3] = experiment: Cell viability assay (dose-response); format: cell-based, human; conditions: SKOV3-cisR cells
Protocol: (§3) Cell viability was measured by MTS assay (Abcam, #ab197010) or by CellTiter-Glo™ assay (Promega, #G7570). Cells were seeded at 96-well plates at densities of 2000˜5000 cells per well overnight. Treatment was added to the cells at indicated concentrations for 72 h. Cell viability was measured by incubating with MTS reagent for 4 h and reading absorbance at 490 nm or incubating with CellTier-Glo™ reagent for 10 min and reading luminescence by a plate reader. Six replicates were used for each group.
(§4) In addition, isogenic PEO1/PEO4 cell lines derived from the same patient were studied, at the time of a platinum sensitive (PEO1) and platinum resistant-recurrence (PEO4).
(§5) Having shown decreased glucose-derived anabolism and increased fatty acid uptake in cisplatin-resistant ovarian cancer cells, whether this metabolic feature can be used for differentiation of cisplatin-resistant from cisplatin-sensitive cancer cells was explored. […] In Table 2 below, quantitation of glucose-d7 (G-d7), PA-d31, and OA-d34 are shown as area fraction of C-D signal out of total cellular area, in mean values.

SKOV3 cells = experiment: Cell viability assay (dose-response); format: cell-based, human; conditions: SKOV3 cells (sensitive)
Protocol: as §3, §4, §5

PEO1 cells = experiment: Cell viability assay (dose-response); format: cell-based, human; conditions: PEO1 cells (sensitive)
Protocol: as §3, §4, §5

PEO4 cells = experiment: Cell viability assay (dose-response); format: cell-based, human
Protocol: as §3, §4, §5

OVCAR5 cells [4] = experiment: Cell viability assay (dose-response); format: cell-based, human; conditions: OVCAR5 cells (sensitive)
Protocol: as §3, §4, §5

OVCAR5-cisR cells [5] = experiment: Cell viability assay (dose-response); format: cell-based, human
Protocol: as §3, §4, §5

SKOV3-cisR cells [6] = experiment: Large-area hyperspectral SRS imaging of lipids, single cell analysis; format: cell-based, human; conditions: 10 μM C-75
Protocol: Hyperspectral SRS imaging was performed on a lab-built system following previously published method [8]. The laser source was a femtosecond laser (InSight™ DeepSee™, Spectra-Physics™, Santa Clara, CA, USA) operating at 80 MHz with two synchronized output beams, a tunable pump beam ranging from 680 nm to 1300 nm, and a Stokes beam fixed at 1040 nm. For imaging at the C-H vibration region (2800˜3050 cm^−1), pump beam was tuned to 798 nm. The Stokes beam was modulated at 2.3 MHz by an acousto-optic modulator (1205-C, Isomet®). After combination, both beams were chirped by two 12.7 cm long SF57 glass rods and then sent to a laser-scanning microscope. The power of pump and Stokes beam before microscope was controlled to be 20 mW and 200 mW, respectively. […]
Lipid analysis in single cells were performed through the software CellProfiler™ [68]. […] Morphological information of each cell and lipid analysis, including LD number and intensity in single cells were measured and reported in the output results. […] For each sample, a few hundreds to a thousand of cells were analyzed.
An SRS spectrum was extracted at each pixel from the image stack. […] Finally, quantitative characterization of lipids in terms of integrated intensity, mean intensity, area, and lipid droplet size in each individual cell was performed.

[7] = test system: platinum resistant PDX model; experiment: Platinum resistant patient-derived xenograft (PDX) model; format: in vivo; conditions: day 14 to 37
Protocol: The platinum resistant PDX model was developed as previously described. After passage through a donor animal, fresh tumor (equal size) was implanted subcutaneously (SC) in 20 female 7-8-week-old NSG mice (Jackson Labs, Cat #: JAX:00555). Tumor sizes were measured using calipers twice per week and tumor volumes were calculated according to the formula length×width^2/2. When the tumor volume reached 100 mm^3, the animals were randomized into four groups: vehicle, carboplatin alone (10 mg/kg weekly intraperitoneal (i.p.) injection), etomoxir alone (40 mg/kg daily i.p. injection), and combination of carboplatin (10 mg/kg weekly i.p. injection) and etomoxir (40 mg/kg daily i.p. injection). Body weights and habitus were monitored twice per week and mice were sacrificed when the largest tumor exceeded 1500 mm^3 or if human endpoints were reached earlier.
A patient-derived xenograft (PDX) model rendered platinum resistant through repeated exposure to carboplatin in vivo as described previously was used to test whether interruption of fatty acid oxidation could sensitize ovarian tumors to platinum in vivo.

OVCAR5 xenografts = OVCAR5 xenografts in mice treated with carboplatin; format: in vivo; conditions: 25 mg/kg carboplatin weekly i.p. for three cycles versus saline
Protocol: Xenografts were obtained through intraperitoneally implantation of 2 million OVCAR5 cells in female (6-8 weeks old) athymic nude mice (Foxn1^nu, Envigo). Two weeks after inoculation, tumor harboring mice were treated with PBS (sensitive group, n=3) or 25 mg/kg carboplatin (resistant group, n=3) via weekly i.p. injection for three cycles. Tumors were collected and weighted one week after the last cycle and frozen. For SRS imaging, tumors were sectioned at […] thickness slices by cryostat. To isolate tumor cells from tissue, PBS and carboplatin treated xenografts were mechanically and enzymatically dissociated in Dulbecco's modified Eagle's medium/F12 (Thermo Fisher Scientific) containing collagenase (300 IU/ml, Sigma-Aldrich) and hyaluronidase (300 IU/ml, Sigma-Aldrich) for 2-4 hours at 37° C. […] To determine whether lipid accumulation also occurs in vivo in platinum-treated tumors, SRS imaging of lipids was performed in OVCAR5 xenografts collected from mice treated weekly with saline or carboplatin for three weeks. Tumor growth was suppressed by carboplatin treatment (FIG. 1N). […] (FIG. 1O). The results shown in FIGS. 1P-1Q indicate heterogenous lipid accumulation and higher lipid amount in the carboplatin-treated tumors compared with the platinum-sensitive tumors. Collectively, higher level of lipid content was a metabolic feature of cisplatin-resistant ovarian cancer cells.

OVCAR5 cells [8] = experiment: Fatty acid oxidation assay (extracellular oxygen consumption kit); format: cell-based, human; conditions: 40 μM etomoxir over 3 hours
Protocol: (§6) Fatty acid oxidation (FAO) was measured using a commercial kit (Abcam, #ab217602) following the provided protocol. Briefly, cells were seeded in 96-well plate with 150 k cells/well. After incubation overnight, medium was replaced. 10 μL of Extracellular O2 consumption reagent, and 2 drops of high-sensitivity mineral oil (pre-heated at 37° C.) were added to each well. Fluorescence was measured in plate reader at 2 min intervals for 180 min at excitation/emission=380/650 nm. Etomoxir was added at final concentration of 40 μM to block FAO. Oxygen consumption rate (OCR) is presented as AFluorescence intensity/Min/cell and FAO rate is calculated as OCRFAO=OCRtotal−OCREtomoxir. At least three replicates were included for each measurement.

OVCAR5-cisR cells [9] = experiment: as above; format: cell-based, human; conditions: 40 μM etomoxir over 3 hours
Protocol: as §6

COV362-cisR cells = experiment: Cell viability assay (dose-response); format: cell-based, human
Protocol: as §3, §4, §5

OVCAR5 cells [10] = experiment: OCR and ECAR by Seahorse analysis; format: cell-based, human; conditions: etomoxir treatment
Protocol: (§7) Cell lines were seeded in a Seahorse® XF96 Cell Culture Microplate (Agilent) at density of 6×10^4 (OVCAR5 pair) or 4×10^4 (PEO pair) per well. After incubation at 37° C. overnight for cell attachment, OCR, and extracellular acidification rate (ECAR) were measured through Seahorse® XFe96 Analyzer (Agilent). Measurement time was 30 seconds following 3 minutes mixture and 30 seconds waiting time. First three cycles were used for basal respiration measurement. […] Basal respiration, ATP production and maximal respiration reduction were calculated following the manufacturer's instructions.

OVCAR5-cisR cells [11] = experiment: OCR and ECAR by Seahorse analysis; format: cell-based, human; conditions: etomoxir treatment
Protocol: as §7

OVCAR5-cisR cells [12] = experiment: ATP/ADP assay; format: cell-based, human; conditions: 3.3 μM cisplatin with 100 μM palmitic acid for 6 hours
Protocol: NADP/NADPH and ADP/ATP were measured by using commercial kits (Abcam, #ab65349 and #ab65313). For NADPH measurement, cells (˜1×10^6 cells) were pelleted and extracted using NADPH/NADP extraction buffer. Total NADP/NADPH was directly measured using the assay kit and NADPH alone was measured after decomposing NADP by heating at 60° C. for 30 min. Absorption at 450 nm was measured by plate reader (Molecular Devices, SpectraMax i3x). For ATP measurement, cells were seeded in 96-well plates. ATP was measured directly and total ATP+ADP was measured by converting ADP to ATP. The luminescent signal was measured by plate reader. At least three replicates were included for each measurement.

CCc1c(-c2ccccc2)c(-c2ccccc2)nn1-c1ccccc1-c1cccc(OCC(=O)O)c1 [BMS309403]
fatty acid uptake (C-D SRS signal intensity) (SKOV3-cisR cells [1]): Suppression of fatty acid uptake | PA-d31 uptake (C-D SRS signal intensity) (OVCAR5-cisR cells [2]): significantly reduced | dose-response to cisplatin with supplemental BMS treatment (SKOV3-cisR cells [3]): reduced resistance to cisplatin | dose-response to cisplatin with supplemental BMS treatment (SKOV3 cells): less obvious | dose-response to cisplatin with supplemental BMS treatment (PEO1 cells): less obvious | dose-response to cisplatin with supplemental BMS treatment (PEO4 cells; PEO4 cells): reduced resistance to cisplatin | dose-response to cisplatin with supplemental BMS treatment (OVCAR5 cells [4]): less obvious | dose-response to cisplatin with supplemental BMS treatment (OVCAR5-cisR cells [5]; OVCAR5-cisR cells): reduced resistance to cisplatin

C=C1C(=O)OC(CCCCCCCC)C1C(=O)O (centres unmarked) [C-75]
increased lipid content in SKOV3-cisR compared with SKOV3 (SKOV3-cisR cells [6]): did not affect the increased lipid content

N.N.O=C([O-])C1(C(=O)[O-])CCC1.[Pt+2] [carboplatin]
tumor growth (total tumor volume) ([7]; carboplatin alone, 10 mg/kg weekly i.p.): slight reduction of tumor growth | Tumor growth (weights of xenografts) (OVCAR5 xenografts): suppressed

CCOC(=O)[C@@]1(CCCCCCOc2ccc(Cl)cc2)CO1 [etomoxir]
tumor growth (total tumor volume) ([7]; etomoxir alone, 40 mg/kg daily i.p.): slight reduction of tumor growth | oxygen consumption (OVCAR5 cells [8]): did not induce an obvious change | oxygen consumption (OVCAR5-cisR cells [9]): significantly reduced | dose-response to cisplatin curves with etomoxir treatment (COV362-cisR cells; COV362-cisR cells, etomoxir 40 μM): significantly left shifted | dose-response to etomoxir, compared to parental cell line (COV362-cisR cells; COV362-cisR versus COV362): Higher sensitivity | dose-response to cisplatin curves with etomoxir treatment (PEO4 cells; PEO4 cells, etomoxir 40 μM): significantly left shifted | dose-response to etomoxir, compared to parental cell line (PEO4 cells; PEO4 versus PEO1): Higher sensitivity | dose-response to cisplatin curves with etomoxir treatment (OVCAR5-cisR cells [5]; OVCAR5-cisR cells, etomoxir 40 μM): significantly left shifted | dose-response to etomoxir, compared to parental cell line (OVCAR5-cisR cells [5]; OVCAR5-cisR versus OVCAR5): Higher sensitivity | OCR (Seahorse FAO assay) (OVCAR5 cells [10]): less sensitive | OCR (Seahorse FAO assay) (OVCAR5-cisR cells [11]): obvious reduction of OCR

CCCCCCCCCCCCCCCC(=O)O [palmitic acid]
ATP level (ATP/ADP ratio) on supplementation (OVCAR5-cisR cells [12]): significantly increased
